According to paper PMC11852235, “Discovery of Effective Inhibitors Against Phosphodiesterase 9, a Potential Therapeutic Target of Alzheimer’s Disease with Antioxidant Capacities” (Antioxidants, 2025):
Where two headings read alike, the source gives them in different places.

How the values were obtained:
PDE9 = conditions: cited from earlier work
BuChE = system: BuChE; set-up: method as in PMID 31250747; conditions: Figure 1; cited from earlier work
AChE = system: AChE; set-up: method as in PMID 31250747; conditions: Figure 1; cited from earlier work
HDAC6 = system: HDAC6; set-up: method as in PMID 31441641; conditions: Figure 1; cited from earlier work
[1] = target: T1, PDE9 (catalytic domain of PDE9A2) (Homo sapiens, UniProt O76083); test: Enzymatic assay against PDE9 (3H-cGMP hydrolysis, scintillation counting); type: biochemical; conditions: 0.25 h, read-out: Inhibition ratio against PDE9; for inhibition at 0.01 µM: at a concentration of 0.01 μM; for inhibition at 0.1 µM: at a concentration of 0.1 μM
T1 construct: PDE9 recombinant catalytic domain (amino acid 181–506); made in house; host or cells: E. coli BL21 (Codonplus)
T1 sequence (O76083 241-566): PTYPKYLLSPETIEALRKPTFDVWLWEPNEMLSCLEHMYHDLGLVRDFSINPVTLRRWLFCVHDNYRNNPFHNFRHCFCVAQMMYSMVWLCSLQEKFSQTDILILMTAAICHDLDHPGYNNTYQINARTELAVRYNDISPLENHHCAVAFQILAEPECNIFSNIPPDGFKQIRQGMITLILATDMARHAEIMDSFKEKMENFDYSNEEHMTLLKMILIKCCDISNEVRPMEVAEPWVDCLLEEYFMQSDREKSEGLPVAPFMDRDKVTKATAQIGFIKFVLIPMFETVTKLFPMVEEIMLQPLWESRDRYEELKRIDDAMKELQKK
Experimental: In brief, E. coli strain BL21 (Codonplus), which carrying with recombinant pET-PDE9A2 plasmid, was grown in LB medium (containing 100 μg/mL ampicillin and 0.4% glucose) at 37 °C until an OD600 achieved 0.6–0.8. Then, the temperature was turned down to 15 °C, and 0.1 mM iso-propyl-b-D-thiogalactopyranoside was added to LB medium to induce the expression of PDE9A2 protein. Bacteria were induced for 20 h and collected for purified PDE9A2 recombinant protein by a Ni-NTA column (Qiagen, Venlo, The Netherlands).
As for the enzymatic assays, ^3H-cGMP (20,000–30,000 cpm, GE Healthcare), the substrate for enzymatic assays against PDE9A2, were diluted in an assay buffer (containing 50 mM Tris-HCl (pH 8.0), 10 mM MgCl2, and 1 mM DTT). And then, the substrate ^3H-cGMP, catalytic domain of PDE9A2, and different concentrations of tested compounds were incubated at room temperature for 15 min. To terminate the reaction, 0.2 M ZnSO4 and 0.2 N Ba(OH)2 were added to the mixture, leaving unreacted ^3H-cGMP in the supernatant. […] Each compound was measured at a minimum of eight concentrations for the IC50 calculation and repeated at least three times.
4.Enzymatic assays against PDE9
The assay buffer contains 50 mM Tris-HCl (pH 8.0), 10 mM MgCl2 or 4 mM MnCl2, 1 mM DTT, and 10-20 nM 3H-cGMP (15000−30000 cpm/assay, CPM control). The reaction was carried out at room temperature for 15 min and then terminated by addition of 0.2 M ZnSO4. The reaction product 3H-GMP was precipitated out by […], whereas unreacted 3H-cGMP remained in the supernatant. The radioactivity in the supernatant was measured in 2.5 […]
(CPMenzyme). For the measurement of IC50 of inhibitors, at least seven concentrations of inhibitors were used in the presence of 3H-cGMP. The enzyme concentration in a range of 10− 100 ng/mL, which hydrolyzed 50- 70% of the substrate, was chosen for each inhibitory assay. The radioactivity was recorded as CPMinhibitor. The IC50 values for PDE9 were calculated using a nonlinear regression analysis.
Inhibition = […] × 100%

[2] = Antioxidant activity, ORAC-FL method; conditions: Trolox as standard
Experimental: The modified Oxygen Radical Absorbance Capacity Fluorescein (ORAC-FL) method was used for antioxidant activity test. In brief, the mixture of test compounds (20 μL) and fluorescein (120 μL, final concentration of 150 nM) was added into a black 96-well plate and incubated for 15 min at 37 °C. Then, 60 μL of 2,2′-azobis(2-amidinopropane) dihydrochloride (AAPH) solution (12 mM) was added rapidly to induce the reaction. The fluorescence with an excitation wavelength of 485 nm and emission at 535 nm was measured in Spectrafluor Plus plate reader (Tecan, Crailsheim, Germany) every minute for 4 h. Integration of the area under the curve (AUC) was […] 1 to 8 μM Trolox was used as a standard. Each compound was tested at 1–10 μM at least in three independent assays. The ORAC-FL values of each compound were calculated according to Equation (1) and expressed as Trolox equivalents.(1) ORAC-FL value=AUCsample−AUCblank/AUCTrolox−AUCblank×ConcentrationTrolox/Concentrationsample

[3] = Figure 1, current PDE9 inhibitors

| inhibition at 0.1 µM [1] [%] | Compound | IC50 (PDE9; [3]) [nM] | ORAC [2] | other results |
| --- | --- | --- | --- | --- |
|  | O=c1[nH]c(Cc2ccccn2)nc2c1cnn2C1CCOCC1 [Compound 2, Osoresnontrine] | 65 |  |  |
|  | COc1cc(CNc2nc3c(cnn3C3CCCC3)c(=O)[nH]2)ccc1OC(=O)N(C)C [Compound 4] | 17 |  | IC50 (BuChE): 960 nM |
|  | O=c1[nH]c(COCCC2CCN(Cc3ccccc3)CC2)nc2c1cnn2C1CCCC1 [Compound 5] | 285 |  | IC50 (AChE): 223 nM |
|  | C[C@@H]1CN(Cc2ccc(C(=O)NO)cc2)C[C@H]1c1nc2c(cnn2C2CCCC2)c(=O)[nH]1 [Compound 6] | 107 |  | IC50 (HDAC6): 40 nM |
| ~50 | C[C@@H](NCc1c[nH]c2ccccc12)c1nc2c(cnn2C2CCCC2)c(=O)[nH]1 [Compound 18a, (R)-6-(1-(((1H-indol-3-yl)methyl)amino)ethyl)-1-cyclopentyl-1,5-dihydro-4H-pyrazolo[3,4-d]pyrimidin-4-one] |  | 0.60 ± 0.06 μmol of Trolox equiv/μmol tested compound | inhibition at 0.01 µM [1]: 46% |
| 76 | C[C@@H](NCc1c[nH]c2ccc(F)cc12)c1nc2c(cnn2C2CCCC2)c(=O)[nH]1 [Compound 18b, (R)-1-cyclopentyl-6-(1-(((5-fluoro-1H-indol-3-yl)methyl)amino)ethyl)-1,5-dihydro-4H-pyrazolo[3,4-d]pyrimidin-4-one] |  | 0.88 ± 0.08 μmol of Trolox equiv/μmol tested compound | inhibition at 0.01 µM [1]: 61% |
| ~50 | C[C@@H](NCc1n[nH]c2ccccc12)c1nc2c(cnn2C2CCCC2)c(=O)[nH]1 [Compound 18e, (R)-6-(1-(((1H-indazol-3-yl)methyl)amino)ethyl)-1-cyclopentyl-1,5-dihydro-4H-pyrazolo[3,4-d]pyrimidin-4-one] |  | 0.15 ± 0.03 μmol of Trolox equiv/μmol tested compound |  |
| < 30 | COc1ccc2[nH]nc(CN[C@H](C)c3nc4c(cnn4C4CCCC4)c(=O)[nH]3)c2c1 [Compound 18f, (R)-1-cyclopentyl-6-(1-(((5-methoxy-1H-indazol-3-yl)methyl)amino)ethyl)-1,5-dihydro-4H-pyrazolo[3,4-d]pyrimidin-4-one] |  | 0.24 ± 0.02 μmol of Trolox equiv/μmol tested compound |  |
|  | CC(Nc1nc2c(cnn2C2CCCC2)c(=O)[nH]1)c1ccc(Cl)cc1 (stereo not drawn) [Compound C33] |  |  | IC50 (PDE9; previously reported): 16 nM |
